Measured values as given in PubChem BioAssay AID256 (DTP/NCI, 2004).
Where “and” joins values, the source holds several entries; their conditions need not be identical. Equal entries are not always repeated. Toxic doses and inconclusive results are not listed.

System: CD2F1 mice, L1210 leukemia ip, survival T/C
Assay: NCI In Vivo Anticancer Drug Screen. Data for tumor model L1210 Leukemia (intraperitoneal) in CD2F1 (CDF1) mice
Settings: higher = longer survival
Summary of the method: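 Transplantable tumor in mice; compound-treated vs vehicle-treated groups. Read-out = treated/control ratio of the measured endpoint.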

[1] = endpoint: mean survival time, dose: 100.0 mg/kg/injection, schedule: Q04DX003 (ip), vehicle: saline with Tween-80
[2] = endpoint: mean survival time, dose: 200.0 mg/kg/injection, schedule: Q04DX003 (ip), vehicle: saline with Tween-80
[3] = endpoint: mean survival time, dose: 400.0 mg/kg/injection, schedule: Q04DX003 (ip), vehicle: saline with Tween-80
[4] = endpoint: mean survival time, dose: 100.0 mg/kg/injection, schedule: Q01DX009 (ip), vehicle: saline with Tween-80
[5] = endpoint: mean survival time, dose: 200.0 mg/kg/injection, schedule: Q01DX009 (ip), vehicle: saline with Tween-80
[6] = endpoint: mean survival time, dose: 100.0 mg/kg/injection, schedule: Q01DX001 (ip), vehicle: carboxymethylcellulose (CMC)
[7] = endpoint: mean survival time, dose: 200.0 mg/kg/injection, schedule: Q01DX001 (ip), vehicle: carboxymethylcellulose (CMC)
[8] = endpoint: mean survival time, dose: 400.0 mg/kg/injection, schedule: Q01DX001 (ip), vehicle: carboxymethylcellulose (CMC)
[9] = endpoint: mean survival time, dose: 50.0 mg/kg/injection, schedule: Q01DX009 (ip), vehicle: saline with Tween-80

With `COc1cc2cc(c1Cl)N(C)C(=O)CC(OC(=O)CC(C)C)C1(C)OC1C(C)C1CC(O)(NC(=O)O1)C(OC)/C=C/C=C(C)C2` (stereo not drawn) the T/C (endpoint: mean survival time, dose: 3.8 micrograms/kg/injection, schedule: Q01DX009 (ip), vehicle: saline + alcohol) was 103 % of control, the T/C (endpoint: mean survival time, dose: 7.5 micrograms/kg/injection, schedule: Q01DX009 (ip), vehicle: saline + alcohol) was 103 % of control and the T/C (endpoint: mean survival time, dose: 15.0 micrograms/kg/injection, schedule: Q01DX009 (ip), vehicle: saline + alcohol) was 112 % of control. For the same compound, the T/C (endpoint: mean survival time, dose: 30.0 micrograms/kg/injection, schedule: Q01DX009 (ip), vehicle: saline + alcohol) was 112 % of control and the T/C (endpoint: mean survival time, dose: 60.0 micrograms/kg/injection, schedule: Q01DX009 (ip), vehicle: saline + alcohol) was 111 % of control.

For `CCOC(=O)C(C)C1(O)CCCCC1` (stereo not drawn), the T/C [1] was 101 % of control, the T/C [2] was 101 % of control and the T/C [3] was 92 % of control.

`Cc1cc(-c2ccccc2)cc(=O)[nH]1` was tested, and the T/C (endpoint: mean survival time, dose: 100.0 mg/kg/injection, schedule: Q01DX001 (ip), vehicle: other) was 92 % of control, the T/C (endpoint: mean survival time, dose: 200.0 mg/kg/injection, schedule: Q01DX001 (ip), vehicle: other) was 92 % of control and the T/C (endpoint: mean survival time, dose: 400.0 mg/kg/injection, schedule: Q01DX001 (ip), vehicle: other) was 91 % of control.

In the case of `CC(=O)c1cc(C)c[n+](C2OC(COC(=O)c3ccccc3)C(OC(=O)c3ccccc3)C2O)c1` (stereo not drawn), the T/C (endpoint: mean survival time, dose: 3.13 mg/kg/injection, schedule: Q01DX005 (ip), vehicle: water) is reported as 100 % of control, the T/C (endpoint: mean survival time, dose: 6.25 mg/kg/injection, schedule: Q01DX005 (ip), vehicle: water) is reported as 98 % of control and the T/C (endpoint: mean survival time, dose: 12.5 mg/kg/injection, schedule: Q01DX005 (ip), vehicle: water) is reported as 106 % of control. The T/C (endpoint: mean survival time, dose: 25.0 mg/kg/injection, schedule: Q01DX005 (ip), vehicle: water) was 93 % of control, the T/C (endpoint: mean survival time, dose: 50.0 mg/kg/injection, schedule: Q01DX005 (ip), vehicle: water) was 100 % of control and 101 % of control and the T/C (endpoint: mean survival time, dose: 100.0 mg/kg/injection, schedule: Q01DX005 (ip), vehicle: water) was 93 % of control.

With `CCC(C)C(C(=O)OCC[N+](C)(CC)CC)c1ccc(C)c(C)c1` (stereo not drawn) the T/C (endpoint: mean survival time, dose: 12.5 mg/kg/injection, schedule: Q04DX003 (ip), vehicle: saline) was 93 % of control, the T/C (endpoint: mean survival time, dose: 25.0 mg/kg/injection, schedule: Q04DX003 (ip), vehicle: saline) was 101 % of control and the T/C (endpoint: mean survival time, dose: 50.0 mg/kg/injection, schedule: Q04DX003 (ip), vehicle: saline) was 97 % of control.

With `COc1ccc(/C=N\O)cc1OC` the T/C [1] was 101 % of control, the T/C [2] was 98 % of control and the T/C [3] was 87 % of control.

For `COC(=O)CSc1nn(C2OC(COC(=O)c3ccccc3)C(OC(=O)c3ccccc3)C2OC(=O)c2ccccc2)c(=O)[nH]c1=O` (stereo not drawn), the T/C (endpoint: mean survival time, dose: 12.5 mg/kg/injection, schedule: Q01DX005 (ip), vehicle: distilled water + Tween-80) was 92 % of control, the T/C (endpoint: mean survival time, dose: 25.0 mg/kg/injection, schedule: Q01DX005 (ip), vehicle: distilled water + Tween-80) was 101 % of control and the T/C (endpoint: mean survival time, dose: 50.0 mg/kg/injection, schedule: Q01DX005 (ip), vehicle: distilled water + Tween-80) was 93 % of control. The T/C (endpoint: mean survival time, dose: 100.0 mg/kg/injection, schedule: Q01DX005 (ip), vehicle: distilled water + Tween-80) was 90 % of control and the T/C (endpoint: mean survival time, dose: 200.0 mg/kg/injection, schedule: Q01DX005 (ip), vehicle: distilled water + Tween-80) was 88 % of control.

For `O=C(O)C(O)C(O)C(OC1OC(CO)C(O)C(O)C1O)C(O)CO.[Br][Pt].[NH-]C1CCCCC1[NH-]` (stereo not drawn), the T/C (endpoint: median survival time, dose: 6.25 mg/kg/injection, schedule: Q04DX003 (ip), vehicle: saline) was 158 % of control, the T/C (endpoint: median survival time, dose: 12.5 mg/kg/injection, schedule: Q04DX003 (ip), vehicle: saline) was 175 % of control and the T/C (endpoint: median survival time, dose: 25.0 mg/kg/injection, schedule: Q04DX003 (ip), vehicle: saline) was 163 % of control and 212 % of control. The T/C (endpoint: median survival time, dose: 50.0 mg/kg/injection, schedule: Q04DX003 (ip), vehicle: saline) was 178 % of control and 200 % of control.

With `COc1ccc(C=NC2C(OC(C)=O)OC(COC(C)=O)C(OC(C)=O)C2OC(C)=O)cc1` (stereo not drawn) the T/C (endpoint: mean survival time, dose: 6.25 mg/kg/injection, schedule: Q01DX009 (ip), vehicle: other) was 96 % of control, the T/C (endpoint: mean survival time, dose: 12.5 mg/kg/injection, schedule: Q01DX009 (ip), vehicle: other) was 96 % of control and the T/C (endpoint: mean survival time, dose: 25.0 mg/kg/injection, schedule: Q01DX009 (ip), vehicle: other) was 93 % of control. For the same compound, the T/C (endpoint: mean survival time, dose: 50.0 mg/kg/injection, schedule: Q01DX009 (ip), vehicle: other) was 94 % of control and the T/C (endpoint: mean survival time, dose: 100.0 mg/kg/injection, schedule: Q01DX009 (ip), vehicle: other) was 96 % of control.

In the case of `CC(=O)Nc1nc(C)c(CC/C=C/c2ccc([N+](=O)[O-])cc2)c(=O)[nH]1`, the T/C [1] is reported as 94 % of control, the T/C [2] is reported as 97 % of control and the T/C [3] is reported as 90 % of control.

With `Cc1cccc(OCCOC(=O)Nc2cccc(C(F)(F)F)c2)c1` the T/C (endpoint: mean survival time, dose: 90.0 mg/kg/injection, schedule: Q01DX009 (ip), vehicle: acetone) was 101 % of control, the T/C (endpoint: mean survival time, dose: 180.0 mg/kg/injection, schedule: Q01DX009 (ip), vehicle: acetone) was 103 % of control and the T/C (endpoint: mean survival time, dose: 360.0 mg/kg/injection, schedule: Q01DX009 (ip), vehicle: acetone) was 101 % of control.

With `CCCOC(=O)COc1ccc(F)cc1` the T/C (endpoint: mean survival time, dose: 100.0 mg/kg/injection, schedule: Q04DX002 (ip), vehicle: saline with Tween-80) was 97 % of control, the T/C (endpoint: mean survival time, dose: 200.0 mg/kg/injection, schedule: Q04DX002 (ip), vehicle: saline with Tween-80) was 101 % of control and the T/C (endpoint: mean survival time, dose: 400.0 mg/kg/injection, schedule: Q04DX002 (ip), vehicle: saline with Tween-80) was 97 % of control.

`OC(c1ccccc1)(c1ccc(-c2ccccc2)cc1)C(O)(c1ccccc1)c1ccc(-c2ccccc2)cc1` (stereo not drawn) was tested, and the T/C (endpoint: mean survival time, dose: 25.0 mg/kg/injection, schedule: Q04DX003 (ip), vehicle: saline with Tween-80) was 96 % of control, the T/C (endpoint: mean survival time, dose: 50.0 mg/kg/injection, schedule: Q04DX003 (ip), vehicle: saline with Tween-80) was 90 % of control and the T/C [1] was 90 % of control and 100 % of control. The T/C [2] was 92 % of control and the T/C [3] was 92 % of control.

`O=C([O][Sb]([O]C(=O)C(Br)Br)([c]1ccccc1)([c]1ccccc1)[c]1ccccc1)C(Br)Br` was tested, and the T/C [1] was 95 % of control, the T/C [2] was 89 % of control and the T/C [3] was 95 % of control.

`O=S(O)C(=Nc1ccccc1)Nc1ccccc1` was tested, and the T/C [4] was 94 % of control and the T/C [5] was 106 % of control.

In the case of `Cc1c2ccccc2cc2c1ccc1cccc(F)c12`, the T/C (endpoint: median survival time, dose: 12.5 mg/kg/injection, schedule: Q04DX003 (ip), vehicle: saline with Tween-80) is reported as 100 % of control, the T/C (endpoint: median survival time, dose: 25.0 mg/kg/injection, schedule: Q04DX003 (ip), vehicle: saline with Tween-80) is reported as 100 % of control and the T/C (endpoint: median survival time, dose: 50.0 mg/kg/injection, schedule: Q04DX003 (ip), vehicle: saline with Tween-80) is reported as 100 % of control.

`O=C(COc1ccc(Cl)c(Cl)c1)NCCc1cc[n+](Cc2ccc(Cl)cc2S(=O)(=O)F)cc1` was tested, and the T/C (endpoint: mean survival time, dose: 100.0 mg/kg/injection, schedule: Q01DX001 (ip), vehicle: saline with Tween-80) was 89 % of control and the T/C (endpoint: mean survival time, dose: 200.0 mg/kg/injection, schedule: Q01DX001 (ip), vehicle: saline with Tween-80) was 89 % of control.

With `Cc1ccc(S(=O)(=O)CC(=O)N2CCOCC2)cc1` the T/C (endpoint: mean survival time, dose: 100.0 mg/kg/injection, schedule: Q04DX003 (ip), vehicle: saline) was 102 % of control, the T/C (endpoint: mean survival time, dose: 200.0 mg/kg/injection, schedule: Q04DX003 (ip), vehicle: saline) was 96 % of control and the T/C (endpoint: mean survival time, dose: 400.0 mg/kg/injection, schedule: Q04DX003 (ip), vehicle: saline) was 98 % of control.

`CC1CCCC2C(=O)OC(=O)C12` (stereo not drawn) was tested, and the T/C (endpoint: mean survival time, dose: 100.0 mg/kg/injection, schedule: Q04DX003 (ip), vehicle: Klucel (hydroxypropylcellulose) (HPC)) was 92 % of control and the T/C (endpoint: mean survival time, dose: 200.0 mg/kg/injection, schedule: Q04DX003 (ip), vehicle: Klucel (hydroxypropylcellulose) (HPC)) was 98 % of control.

For `CCOC(=O)Nc1cnc2nc[nH]c2c1N(C)C`, the T/C [6] was 104 % of control, the T/C [7] was 104 % of control and the T/C [8] was 124 % of control.

In the case of `COC(=O)c1ccc[n+](CC(=O)c2ccccc2)c1`, the T/C [9] is reported as 101 % of control, the T/C [4] is reported as 96 % of control and the T/C [5] is reported as 98 % of control.

In the case of `CCN(CCS)Cc1ccccc1`, the T/C [1] is reported as 98 % of control.

With `C/C=C\c1ccc(OCCOC(=O)Nc2ccc(Cl)cc2C)c(OC)c1` the T/C [9] was 87 % of control, the T/C [4] was 92 % of control and the T/C [5] was 100 % of control.

With `O=C(O)C1C(C(=O)O)C(C(=O)O)C1C(=O)O` (stereo not drawn) the T/C [9] was 109 % of control, the T/C [4] was 95 % of control and the T/C [5] was 108 % of control.

`Cc1cn(C2CCC(CO)C2)c(=O)[nH]c1=O` (stereo not drawn) was tested, and the T/C [6] was 95 % of control, the T/C [7] was 95 % of control and the T/C [8] was 103 % of control.

`COC(=O)c1ccc(Cl)nc1` was tested, and the T/C (endpoint: mean survival time, dose: 75.0 mg/kg/injection, schedule: Q04DX003 (ip), vehicle: saline with Tween-80) was 106 % of control, the T/C [4] was 98 % of control and the T/C (endpoint: mean survival time, dose: 150.0 mg/kg/injection, schedule: Q04DX003 (ip), vehicle: saline with Tween-80) was 106 % of control. For the same compound, the T/C [5] was 97 % of control, the T/C (endpoint: mean survival time, dose: 300.0 mg/kg/injection, schedule: Q04DX003 (ip), vehicle: saline with Tween-80) was 100 % of control and the T/C (endpoint: mean survival time, dose: 400.0 mg/kg/injection, schedule: Q01DX009 (ip), vehicle: saline with Tween-80) was 87 % of control.
